# Where “and” joins values, the source holds several entries; their conditions need not be identical. Equal values may be shown once. Numbered stars: 1 amine (or outer) side, 2 acyl side, 3 side chain; on linkers, the order of the positions; unused ones are H or OH. Bridge positions count the residues as written; N and C are the ends. Square brackets hold non-standard residues; d marks the D form. Peptide text beside a SMILES is read from it. Tartaroyl(2R,3R-(OAc)2) = CC(=O)O[C@@H](C(=O)[*:1])[C@@H](OC(C)=O)C(=O)[*:2]; Phe(4-CF3) = N[C@@H](Cc1ccc(C(F)(F)F)cc1)C(=O)O; Phe(4-COOH) = N[C@@H](Cc1ccc(C(=O)O)cc1)C(=O)O; Phe(4-tBu) = CC(C)(C)c1ccc(C[C@H](N)C(=O)O)cc1; dPhe(3-OMe) = COc1cccc(C[C@@H](N)C(=O)O)c1; dPhe(4-CN) = N#Cc1ccc(C[C@@H](N)C(=O)O)cc1; Bip = N[C@@H](Cc1ccc(-c2ccccc2)cc1)C(=O)O; dBip = N[C@H](Cc1ccc(-c2ccccc2)cc1)C(=O)O; dPhe(4-NH2) = Nc1ccc(C[C@@H](N)C(=O)O)cc1; Phe(4-Br) = N[C@@H](Cc1ccc(Br)cc1)C(=O)O; Phe(4-NH2) = Nc1ccc(C[C@H](N)C(=O)O)cc1; Maleoyl = O=C(/C=C\C(=O)[*:2])[*:1]; d(hPhe) = N[C@H](CCc1ccccc1)C(=O)O; 3Pal = N[C@@H](Cc1cccnc1)C(=O)O; 2Thi = N[C@@H](Cc1cccs1)C(=O)O; Cha = N[C@@H](CC1CCCCC1)C(=O)O; d2Thi = N[C@H](Cc1cccs1)C(=O)O; Suc = O=C(CCC(=O)[*:2])[*:1]; Nphe = O=C(O)CNCc1ccccc1; GABA = NCCCC(=O)O; βAla = NCCC(=O)O
# Molecular target: T1, TNFα / TNFα receptor (TNFα R1/Fc) (Homo sapiens, UniProt P01375)
# T1 construct: purchased R&D Systems
# T1 sequence (P01375 77-233 limits assumed, species assumed): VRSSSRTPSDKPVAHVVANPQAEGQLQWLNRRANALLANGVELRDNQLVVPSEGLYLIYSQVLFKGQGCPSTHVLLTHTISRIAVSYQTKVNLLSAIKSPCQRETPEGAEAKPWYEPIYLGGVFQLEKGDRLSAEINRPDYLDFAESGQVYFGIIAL
# Assay: Inhibition of binding of TNFα to the TNFα receptor (plate ELISA competition)
# Details: Activity (IC50, inhibition of TNFα binding to TNFα R1/Fc), Table 2
# Method in brief: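 Plates were coated with TNFα at 15 nM. Test compound and 8.33 nM receptor-Fc (PBST, 2% DMSO) were first mixed in solution for 30 min at room temperature, then transferred to the plates for another 30 min. Competition was read by absorbance at 450 nm after HRP anti-human IgG Fc detection with TMB.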
row,Structure (SMILES),IC50 [µM]
1,O=C1COc2ccc(cc2)C[C@@H](C(=O)N[C@H](Cc2ccccc2)C(=O)O)NC(=O)[C@H](CCc2ccccc2)NC(=O)[C@@H](Cc2ccc(-c3ccccc3)cc2)NC(=O)[C@H](Cc2cccs2)N1 [Compound 480],10 to 30
2,O=C1COc2ccc(cc2)C[C@@H](C(=O)NCc2nnn[nH]2)NC(=O)[C@H](Cc2ccccc2)NC(=O)[C@@H](Cc2ccc(-c3ccccc3)cc2)NC(=O)[C@H](Cc2cccs2)N1 [Compound 591],< 10

# Same assay, conditions: Table 2; read-out: Activity (IC50, inhibition of TNFα binding to TNFα R1/Fc)
row,IC50,Structure (SMILES)
1,> 100 µM,O=C(O)CCCNC(=O)[C@@H]1Cc2ccc(cc2)NC(=O)CCC(=O)N[C@H](Cc2ccccc2)C(=O)N[C@@H](Cc2ccc(-c3ccccc3)cc2)C(=O)N[C@H](CCc2ccccc2)C(=O)N1 [Compound 460] ([dF][Bip][d(hPhe)][Phe(4-NH2)][GABA]-OH; linker N-4 via Suc)
2,> 100 µM,C[C@H](NC(=O)[C@@H]1Cc2ccc(cc2)NC(=O)CCC(=O)N[C@H](Cc2cccs2)C(=O)N[C@@H](Cc2ccc(-c3ccccc3)cc2)C(=O)N[C@H](CCc2ccccc2)C(=O)N1)C(=O)O [Compound 447] ([d2Thi][Bip][d(hPhe)][Phe(4-NH2)]A-OH; linker N-4 via Suc)
3,< 10 µM,Cc1ccc(C[C@@H]2NC(=O)COc3ccc(cc3)C[C@@H](C(=O)O)NC(=O)[C@H](CCc3ccccc3)NC(=O)[C@@H](Cc3ccc(-c4ccccc4)cc3)NC2=O)cc1 [Compound 692]
4,10 to 30 µM,O=C1COc2ccc(cc2)C[C@H](C(=O)O)NC(=O)[C@H](Cc2ccccc2F)NC(=O)[C@@H](Cc2ccc(-c3ccccc3)cc2)NC(=O)[C@H](Cc2c[nH]c3ccccc23)N1 [Compound 728]
5,< 10 µM,"CC(=O)O[C@H]1C(=O)Nc2ccc(cc2)C[C@H](C(=O)O)NC(=O)[C@@H](CCc2ccccc2)NC(=O)[C@H](Cc2ccc(Br)cc2)NC(=O)[C@@H](Cc2cccs2)NC(=O)[C@@H]1OC(C)=O [Compound 219] ([d2Thi][Phe(4-Br)][d(hPhe)][dPhe(4-NH2)]-OH; linker N-4 via Tartaroyl(2R,3R-(OAc)2))"
6,> 100 µM,COc1cccc(C[C@H]2NC(=O)CCC(=O)Nc3ccc(cc3)C[C@@H](C(=O)O)NC(=O)[C@@H](Cc3ccccc3)NC(=O)[C@H](Cc3ccc(C(F)(F)F)cc3)NC2=O)c1 [Compound 138] ([dPhe(3-OMe)][Phe(4-CF3)][dF][Phe(4-NH2)]-OH; linker N-4 via Suc)
7,> 100 µM,CC(C)(C)c1ccc(C[C@@H]2NC(=O)[C@@H](Cc3cccs3)NC(=O)CCC(=O)Nc3ccc(cc3)C[C@@H](C(=O)O)NC(=O)[C@@H](Cc3ccccc3)NC2=O)cc1 [Compound 90] ([d2Thi][Phe(4-tBu)][dF][Phe(4-NH2)]-OH; linker N-4 via Suc)
8,< 10 µM,O=C1COc2ccc(cc2)C[C@@H](C(=O)O)NC(=O)[C@H](CCc2ccccc2)NC(=O)[C@@H](Cc2ccc(-c3ccccc3)cc2)NC(=O)[C@H](Cc2ccc([N+](=O)[O-])cc2)N1 [Compound 512]
9,> 100 µM,O=C(O)C[C@H](NC(=O)[C@@H]1Cc2ccc(cc2)NC(=O)CCC(=O)N[C@H](Cc2cccs2)C(=O)N[C@@H](Cc2ccc(-c3ccccc3)cc2)C(=O)N[C@H](Cc2ccccc2)C(=O)N1)C(=O)O [Compound 27] ([d2Thi][Bip][dF][Phe(4-NH2)]D-OH; linker N-4 via Suc)
10,> 100 µM,O=C1CCNC(=O)c2ccc(cc2)C[C@@H](C(=O)O)NC(=O)[C@@H](Cc2ccccc2)NC(=O)[C@@H](Cc2ccc(-c3ccccc3)cc2)NC(=O)[C@@H](CCc2ccccc2)N1 [Compound 469] ([βAla][d(hPhe)][dBip][dF][Phe(4-COOH)]-OH; lactam N-5)
11,> 100 µM,O=C1CCC(=O)N[C@H](Cc2cccs2)C(=O)N[C@@H](Cc2ccccc2)C(=O)N[C@H](Cc2ccccc2)C(=O)N[C@H](C(=O)O)Cc2ccc(cc2)N1 [Compound 83] ([d2Thi]F[dF][Phe(4-NH2)]-OH; linker N-4 via Suc)
12,> 100 µM,O=C1COc2ccc(cc2)C[C@@H](C(=O)O)NC(=O)[C@@H](CCc2ccccc2)NC(=O)[C@H](Cc2ccc(F)cc2)NC(=O)[C@@H](Cc2cccs2)N1 [Compound 527]
13,< 10 µM,O=C1COc2ccc(cc2)C[C@@H](C(=O)O)NC(=O)[C@H](Cc2ccc(-c3ccccn3)cc2)NC(=O)[C@@H](Cc2ccc(-c3ccccc3)cc2)NC(=O)[C@H](Cc2cccs2)N1 [Compound 632]
14,< 10 µM,O=C(O)CNC(=O)[C@@H]1Cc2ccc(cc2)OCC(=O)N[C@@H](Cc2cccs2)C(=O)N[C@H](Cc2ccc(-c3ccccc3)cc2)C(=O)N[C@@H](Cc2ccccc2)C(=O)N1 [Compound 383]
15,> 100 µM,O=C1CCC(=O)N[C@H](CCc2ccccc2)C(=O)N[C@@H](Cc2ccc(-c3ccccc3)cc2)C(=O)N[C@H](Cc2ccccc2)C(=O)N[C@H](C(=O)N[C@@H](Cc2cccnc2)C(=O)O)Cc2ccc(cc2)N1 [Compound 403] ([d(hPhe)][Bip][dF][Phe(4-NH2)][3Pal]-OH; linker N-4 via Suc)
16,> 100 µM,O=C(O)[C@@H]1Cc2ccc(cc2)NC(=O)[C@H](O)[C@@H](O)C(=O)N[C@H](Cc2cccs2)C(=O)N[C@@H](Cc2ccc(-c3cccc(O)c3)cc2)C(=O)N[C@H](Cc2ccccc2)C(=O)N1 [Compound 188]
17,30 to 100 µM,O=C1COc2ccc(cc2)C[C@@H](C(=O)O)NC(=O)[C@@H](CCc2ccccc2)NC(=O)[C@H](Cc2ccc(-c3ccccc3)cc2)NC(=O)[C@@H](Cc2ccc(C(F)(F)F)cc2)N1 [Compound 150]
18,> 100 µM,O=C1CCC(=O)N[C@H](Cc2cccs2)C(=O)N[C@@H](Cc2cccs2)C(=O)N[C@H](Cc2ccccc2)C(=O)N[C@H](C(=O)O)Cc2ccc(cc2)N1 [Compound 97] ([d2Thi][2Thi][dF][Phe(4-NH2)]-OH; linker N-4 via Suc)

row,IC50,Structure (SMILES)
1,< 10 µM,O=C(O)CCNC(=O)[C@@H]1Cc2ccc(cc2)OCC(=O)N[C@@H](Cc2ccncc2)C(=O)N[C@H](Cc2ccc(-c3ccccc3)cc2)C(=O)N[C@@H](CCc2ccccc2)C(=O)N1 [Compound 559]
2,30 to 100 µM,N#Cc1ccc(C[C@H]2NC(=O)CCC(=O)Nc3ccc(cc3)C[C@@H](C(=O)O)NC(=O)[C@@H](Cc3ccccc3)NC(=O)[C@H](Cc3ccc(C(F)(F)F)cc3)NC2=O)cc1 [Compound 131] ([dPhe(4-CN)][Phe(4-CF3)][dF][Phe(4-NH2)]-OH; linker N-4 via Suc)
3,> 100 µM,O=C1COc2ccc(cc2)C[C@@H](C(=O)O)NC(=O)[C@H](Cc2ccccc2)NC(=O)[C@H](Cc2ccc(-c3ccccc3)cc2)NC(=O)[C@@H](Cc2cccs2)N1 [Compound 213]
4,> 100 µM,O=C(O)[C@@H]1Cc2ccc(cc2)NC(=O)[C@H](O)[C@@H](O)C(=O)N[C@H](c2ccccc2)C(=O)N[C@@H](Cc2ccc(-c3ccccc3)cc2)C(=O)N[C@H](Cc2ccccc2)C(=O)N1 [Compound 312]
5,10 to 30 µM and > 100 µM,O=C(O)CCCNC(=O)[C@H]1Cc2ccc(cc2)OCC(=O)N[C@@H](Cc2ccncc2)C(=O)N[C@H](Cc2ccc(-c3ccccc3)cc2)C(=O)N[C@@H](CCc2ccccc2)C(=O)N1 [compound 715]
6,> 100 µM,O=C1CCC(=O)N[C@H](Cc2cccs2)C(=O)N[C@H](Cc2ccc(-c3ccccc3)cc2)C(=O)N[C@H](Cc2ccccc2)C(=O)N[C@@H](C(=O)O)Cc2ccc(cc2)N1 [Compound 498] ([d2Thi][dBip][dF][dPhe(4-NH2)]-OH; linker N-4 via Suc)
7,> 100 µM,O=C1COc2ccc(cc2)C[C@@H](C(=O)N[C@@H](Cc2ccccc2)C(=O)O)NC(=O)[C@H](CCc2ccccc2)NC(=O)[C@@H](Cc2ccc(-c3ccccc3)cc2)NC(=O)[C@H](Cc2ccc(-c3ccccc3)cc2)N1 [Compound 574]
8,> 100 µM,O=C(O)CCCNC(=O)[C@@H]1Cc2ccc(cc2)NC(=O)CCC(=O)N[C@H](CCc2ccccc2)C(=O)N[C@@H](Cc2ccc(-c3ccccc3)cc2)C(=O)N[C@H](Cc2ccccc2)C(=O)N1 [Compound 354] ([d(hPhe)][Bip][dF][Phe(4-NH2)][GABA]-OH; linker N-4 via Suc)
9,< 10 µM,CC(=O)NCCCC[C@@H]1NC(=O)COc2ccc(cc2)C[C@@H](C(=O)O)NC(=O)[C@H](CCc2ccccc2)NC(=O)[C@@H](Cc2ccc(-c3ccccc3)cc2)NC1=O [Compound 508]
10,> 100 µM,O=C1COc2ccc(cc2)C[C@@H](C(=O)O)NC(=O)[C@@H](Cc2ccc(O)cc2)NC(=O)[C@H](Cc2ccc(-c3ccccc3)cc2)NC(=O)[C@@H](Cc2cccs2)N1 [Compound 534]
11,< 10 µM,O=C1COc2ccc(cc2)C[C@@H](C(=O)N[C@H](Cc2ccccc2)C(=O)O)NC(=O)[C@H](Cc2ccc(O)cc2)NC(=O)[C@@H](Cc2ccc(-c3ccccc3)cc2)NC(=O)[C@H](Cc2cccs2)N1 [Compound 565]
12,10 to 30 µM,O=C1COc2ccc(cc2)C[C@@H](C(=O)O)NC(=O)[C@H](CCc2ccccc2)NC(=O)[C@@H](Cc2ccc(-c3ccncc3)cc2)NC(=O)[C@H](Cc2ccncc2)N1 [Compound 666]
13,> 100 µM,O=C1COc2ccc(cc2)C[C@@H](C(=O)O)NC(=O)[C@H](Cc2ccc(O)cc2)NC(=O)[C@@H](Cc2ccc(-c3ccccc3)cc2)NC(=O)[C@H](Cc2cccs2)N1 [Compound 427]
14,< 10 µM,O=C1COc2ccc(cc2)C[C@@H](C(=O)NCCCS(=O)(=O)O)NC(=O)[C@H](CCc2ccccc2)NC(=O)[C@@H](Cc2ccc(-c3ccccc3)cc2)NC(=O)[C@H](Cc2ccncc2)N1 [Compound 599]
15,> 100 µM,O=C1CCC(=O)N[C@H](Cc2cccs2)C(=O)N[C@@H](Cc2ccc(-c3ccccc3)cc2)C(=O)N(Cc2ccccc2)CC(=O)N[C@H](C(=O)O)Cc2ccc(cc2)N1 [Compound 55] ([d2Thi][Bip][Nphe][Phe(4-NH2)]-OH; linker N-4 via Suc)
16,> 100 µM,N=C(N)NCCC[C@H]1NC(=O)CCC(=O)Nc2ccc(cc2)C[C@@H](C(=O)O)NC(=O)[C@@H](Cc2ccccc2)NC(=O)[C@H](Cc2ccc(C(F)(F)F)cc2)NC1=O [Compound 141] ([dR][Phe(4-CF3)][dF][Phe(4-NH2)]-OH; linker N-4 via Suc)
17,< 10 µM,O=C1/C=C\C(=O)N[C@@H](CC2CCCCC2)C(=O)N[C@@H](Cc2ccc(-c3ccccc3)cc2)C(=O)N[C@H](CCc2ccccc2)C(=O)N[C@H](C(=O)O)Cc2ccc(cc2)N1 [Compound 197] ([Cha][Bip][d(hPhe)][Phe(4-NH2)]-OH; linker N-4 via Maleoyl)

# Reference: patent US8338565B2, “Macrocyclic compounds for inhibition of tumor necrosis factor alpha” (Ensemble Therapeutics Corporation, priority 2008, dated 2012)
